Measurements taken from PMC11811690 (Angewandte Chemie (International Ed. in English), 2024).
≈ marks a conversion by molar mass, not a printed value. Where “and” joins values, the source holds several entries; their conditions need not be identical. Identical values can stand only once. Like-named read-outs stand apart in the source and are kept apart here.

What was measured:
[1] = test system: M. tuberculosis H37Rv poly-g-GFP; test: microbe, parasite or virus in culture; type: cell-based; conditions: for IC90: Mycobacterium tuberculosis, H37RV, 240 h, read-out: IC90 Mtb H37Rv-poly-g-GFP, fluorescence read-out
[2] = test system: M. tuberculosis H37Rv poly-g-GFP; test: microbe, parasite or virus in culture; type: cell-based; conditions: Mycobacterium tuberculosis, 336 h, read-out: MIC Mtb H37Rv-poly-g-GFP, turbidity read-out
C. difficile 630 = test: microbe, parasite or virus in culture; type: cell-based, Clostridioides difficile; conditions: C. difficile 630, anaerobic, overnight, growth suppressed to OD600 < 0.15; for MIC: Clostridioides difficile, read-out: MIC C. difficile
[3] = test system: C. crescentus pfhuA_ΔacrAB-nodT; type: cell-based; conditions: disk diffusion, 20 µg per disk, 24 h, 30 °C; permeable and efflux-deficient strain
mutant RNAP^R89A = test system: mutant RNAP^R89A; parameters: method as in PMID 29606590; conditions: transcription assay, mutant versus wild-type RNAP; cited from earlier work
C. crescentus pfhuA = test: Inhibition zone (Kirby-Bauer disk diffusion), C. crescentus pfhuA; conditions: 20 µg per disk, 24 h, 30 °C, permeable strain
M. tuberculosis RNAP = biological target: T1, M. tuberculosis RNAP (Mycobacterium tuberculosis, UniProt P9WGY7+P9WGY9); test: biochemical; conditions: fluorescent run-off transcription assay, triplicate, mean ± s.d.; read-out: IC50 Mtb RNAP, fluorescence read-out
T1 construct: made in house; host or cells: E. coli BL21(DE3) is stated for σA only

[4] = concentration for 90 % inhibition of fluorescence as proxy for growth inhibition, 10 days, 37 °C
[5] = 14 days, 37 °C, turbidity by eye

SMILES	IC90 [1] [µg/mL]	MIC [2] [µg/mL]	MIC (C. difficile 630) [µg/mL]	Inhibition zone C. crescentus pfuhAh_∆acrABnodT [3]	increase of IC50 against the mutant RNAP^R89A (mutant RNAP^R89A) [fold]	Inhibition zone C. crescentus pfuhAh (C. crescentus pfhuA) [mm2]	IC50 (M. tuberculosis RNAP) [nM]	MIC C. difficile (C. difficile 630) [µg/mL]	activity against M. tuberculosis (in words) [1]	IC90 [1, 4] [µg/mL]	MIC [2, 5] [µg/mL]
CCc1c(Cl)c(O)c(Cl)c(O)c1C(=O)O[C@H]1[C@H](O)[C@H](OC)[C@H](OC/C2=C\C=C\C[C@H](O)/C(C)=C/[C@H](CC)[C@@H](O[C@@H]3OC(C)(C)[C@@H](OC(=O)C(C)C)[C@H](O)[C@@H]3O)/C(C)=C/C(C)=C/C[C@@H]([C@@H](C)O)OC2=O)O[C@@H]1C [Fdx, fidaxomicin, reference compound]	0.5 (≈ 0.473 µM)	0.5 (≈ 0.473 µM)	< 0.0078	311 ± 4 mm2 and 311±4.0 mm2	> 400	126 ± 20					
CC[C@H]1/C=C(\C)[C@@H](O)C/C=C/C=C(\CNc2nccs2)C(=O)O[C@H]([C@@H](C)O)C/C=C(C)/C=C(\C)[C@@H]1O[C@@H]1OC(C)(C)[C@@H](OC(=O)C(C)C)[C@H](O)[C@@H]1O [compound 8]	16 (≈ 21.4 µM)		4 to 8 (≈ 5.36 to 10.7 µM)	263 ± 32 mm2		81 ± 12					
CC[C@H]1/C=C(\C)[C@@H](O)C/C=C/C=C(\CNc2nc(COc3ccccc3)cs2)C(=O)O[C@H]([C@@H](C)O)C/C=C(C)/C=C(\C)[C@@H]1O[C@@H]1OC(C)(C)[C@@H](OC(=O)C(C)C)[C@H](O)[C@@H]1O [compound 10]	8 (≈ 9.38 µM)	4 to 8 (≈ 4.69 to 9.38 µM)	1 (≈ 1.17 µM)				170 ± 60	1 (≈ 1.17 µM)			
CC[C@H]1/C=C(\C)[C@@H](O)C/C=C/C=C(\CNc2nc(-c3ccccc3)cs2)C(=O)O[C@H]([C@@H](C)O)C/C=C(C)/C=C(\C)[C@@H]1O[C@@H]1OC(C)(C)[C@@H](OC(=O)C(C)C)[C@H](O)[C@@H]1O [compound 13]	8 (≈ 9.72 µM)	8 to 16 (≈ 9.72 to 19.4 µM)	4 (≈ 4.86 µM)				130 ± 50				
CC[C@H]1/C=C(\C)[C@@H](O)C/C=C/C=C(\CNCc2nnc(-c3ccccc3)o2)C(=O)O[C@H]([C@@H](C)O)C/C=C(C)/C=C(\C)[C@@H]1O[C@@H]1OC(C)(C)[C@@H](OC(=O)C(C)C)[C@H](O)[C@@H]1O [compound 16]	4 (≈ 4.87 µM)	4 (≈ 4.87 µM)	4 to 8 (≈ 4.87 to 9.73 µM)	322 ± 26 mm2		127 ± 13	420 ± 230				
CC[C@H]1/C=C(\C)[C@@H](O)C/C=C/C=C(\CNCc2nnc(-c3ccc(OC)c(OC)c3Cl)o2)C(=O)O[C@H]([C@@H](C)O)C/C=C(C)/C=C(\C)[C@@H]1O[C@@H]1OC(C)(C)[C@@H](OC(=O)C(C)C)[C@H](O)[C@@H]1O [compound 18]	8 (≈ 8.73 µM)	4 (≈ 4.36 µM)	8 (≈ 8.73 µM)	200 ± 19 mm2		54 ± 8					
CC[C@H]1/C=C(\C)[C@@H](O)C/C=C/C=C(\CNCc2nnc(-c3ccccc3)s2)C(=O)O[C@H]([C@@H](C)O)C/C=C(C)/C=C(\C)[C@@H]1O[C@@H]1OC(C)(C)[C@@H](OC(=O)C(C)C)[C@H](O)[C@@H]1O [compound 20]	2 (≈ 2.39 µM)	2 (≈ 2.39 µM)		241 ± 40 mm2		108 ± 11					
CC[C@H]1/C=C(\C)[C@@H](O)C/C=C/C=C(\CNCc2nnc(-c3cc(Cl)cc(Cl)c3)o2)C(=O)O[C@H]([C@@H](C)O)C/C=C(C)/C=C(\C)[C@@H]1O[C@@H]1OC(C)(C)[C@@H](OC(=O)C(C)C)[C@H](O)[C@@H]1O [compound 21]	8 (≈ 8.98 µM)	2 (≈ 2.24 µM)	4 (≈ 4.49 µM)	73 ± 11 mm2							
CC[C@H]1/C=C(\C)[C@@H](O)C/C=C/C=C(\CNc2ccc(C#N)cc2)C(=O)O[C@H]([C@@H](C)O)C/C=C(C)/C=C(\C)[C@@H]1O[C@@H]1OC(C)(C)[C@@H](OC(=O)C(C)C)[C@H](O)[C@@H]1O [compound 24]			4 (≈ 5.23 µM)						showed activity	16 (≈ 20.9 µM)	16 (≈ 20.9 µM)
CC[C@H]1/C=C(\C)[C@@H](O)C/C=C/C=C(\CNc2ccc(C#N)cn2)C(=O)O[C@H]([C@@H](C)O)C/C=C(C)/C=C(\C)[C@@H]1O[C@@H]1OC(C)(C)[C@@H](OC(=O)C(C)C)[C@H](O)[C@@H]1O [compound 25]								1 (≈ 1.31 µM)		16 (≈ 20.9 µM)	8 (≈ 10.4 µM)
CC[C@H]1/C=C(\C)[C@@H](O)C/C=C/C=C(\CNc2cccc(CN)c2)C(=O)O[C@H]([C@@H](C)O)C/C=C(C)/C=C(\C)[C@@H]1O[C@@H]1OC(C)(C)[C@@H](OC(=O)C(C)C)[C@H](O)[C@@H]1O [compound 27]			> 32	119 ± 15 mm2			> 100000			32 (≈ 41.6 µM)	
CC[C@H]1/C=C(\C)[C@@H](O)C/C=C/C=C(\CNc2cccc(CNC(=O)c3ccc(OC)c(OC)c3Cl)c2)C(=O)O[C@H]([C@@H](C)O)C/C=C(C)/C=C(\C)[C@@H]1O[C@@H]1OC(C)(C)[C@@H](OC(=O)C(C)C)[C@H](O)[C@@H]1O [compound 30]			> 32				620 ± 290			16 (≈ 16.5 µM)	
